In patent US20240287070A1, “FUSED HETEROCYCLIC DERIVATIVES” (Janssen Sciences Ireland Unlimited Company, priority 2021, published 2024):

How the values were obtained:
[1] = test system: HBV (HepG2.117 cell line, inducibly HBV producing); experiment: Anti-HBV activity, intracellular HBV DNA by real-time PCR in HepG2.117 cell line; type: cell-based, hepatitis B virus; conditions: HepG2.117 cells, 3 days of treatment
Procedure, shortened: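 HepG2.117 cells (Tet-off, inducible HBV production) were induced to replicate HBV by doxycycline absence, then treated with serially diluted compound for 3 days. Activity was quantified as intracellular HBV DNA by real-time PCR using an HBV-specific primer set and probe.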

[2] = Human liver microsome stability; type: in vitro ADME; conditions: pooled human liver microsomes 0.5 mg/mL, 1 μM compound, NADPH 1 mM, 37° C., 0-60 min
Procedure, shortened: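 Single incubations with human liver microsomes started with 1 mM NADPH; samples taken at 0, 5, 10, 20, 40 and 60 min, quenched in acetonitrile (1:3). Cassette LC-MS analysis with internal standard; t½ derived from slope of ln peak-area ratio versus time (k = −gradient).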

HepG2 or HepG2.117 cells = experiment: Cytotoxicity, ATPlite Luminescence Assay; type: cell-based, human; conditions: 3-days incubation unless marked with *
Procedure, shortened: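 Luminescent ATP quantitation served as the viability endpoint following a 3- or 4-day incubation with test compounds.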

| SMILES | EC50 [1] | HLM Metabolism t1/2 [2] | CC50 (HepG2 or HepG2.117 cells) |
| --- | --- | --- | --- |
| CC(c1ccnc(Cl)c1)N1C[C@@H](C)n2nc3c(c2C1=O)CN(C(=O)c1ccc(Cl)c(Cl)c1)[C@H](C)C3 (single isomer, unassigned) [Compound 31B, (3R,7R)-9-((S*)-1-(2-chloropyridin-4-yl)ethyl)-2-(3,4-dichlorobenzoyl)-3,7-dimethyl-1,2,3,4,8,9-hexahydropyrido[4′,3′:3,4]pyrazolo[1,5-a]pyrazin-10(7H)-one] | 0.019 µM | 2.12 h | 22.7 µM |
| CC(c1cc(F)ccn1)N1C[C@@H](C)n2nc3c(c2C1=O)CN(C(=O)c1ccc(Cl)c(Cl)c1)[C@H](C)C3 (single isomer, unassigned) [Compound 32B] | 0.088 µM | 2.23 h | > 50 µM |
| CC(c1ccc(NS(C)(=O)=O)cn1)N1C[C@@H](C)n2nc3c(c2C1=O)CN(C(=O)c1ccc(Cl)c(C(F)(F)F)c1)[C@H](C)C3 (single isomer, unassigned) [Compound 33B, N-(6-((S*)-1-((3R,7R)-2-(4-chloro-3-(trifluoromethyl)benzoyl)-3,7-dimethyl-10-oxo-1,3,4,7,8,10-hexahydropyrido[4′,3′:3,4]pyrazolo[1,5-a]pyrazin-9(2H)-yl)ethyl)pyridin-3-yl)methanesulfonamide] | 0.043 µM | >3 h | > 50 µM |
| CC(c1cnc(C(F)(F)F)nc1)N1C[C@@H](C)n2nc3c(c2C1=O)CN(C(=O)c1ccc(Cl)c(Cl)c1)[C@H](C)C3 (single isomer, unassigned) [Compound 34B, (3R,7R)-2-(3,4-dichlorobenzoyl)-3,7-dimethyl-9-((S*)-1-(2-(trifluoromethyl)pyrimidin-5-yl)ethyl)-1,2,3,4,8,9-hexahydropyrido[4′,3′:3,4]pyrazolo[1,5-a]pyrazin-10(7H)-one] | 0.052 µM | >3 h | 34.9 µM |
| CC(c1cnc(C(C)(C)O)nc1)N1C[C@@H](C)n2nc3c(c2C1=O)CN(C(=O)c1ccc(Cl)c(C(F)(F)F)c1)[C@H](C)C3 (single isomer, unassigned) [Compound 35B, (3R,7R)-2-(4-chloro-3-(trifluoromethyl)benzoyl)-9-((S*)-1-(2-(2-hydroxypropan-2-yl)pyrimidin-5-yl)ethyl)-3,7-dimethyl-1,2,3,4,8,9-hexahydropyrido[4′,3′:3,4]pyrazolo[1,5-a]pyrazin-10(7H)-one] | 0.01 µM | >3 h | > 50 µM |
| CC(c1cnc(C(C)(C)O)nc1)N1C[C@@H](C)n2nc3c(c2C1=O)CN(C(=O)c1ccc(Cl)c(Cl)c1)[C@H](C)C3 (single isomer, unassigned) [Compound 36B, (3R,7R)-2-(3,4-Dichlorobenzoyl)-9-((S*)-1-(2-(2-hydroxypropan-2-yl)pyrimidin-5-yl)ethyl)-3,7-dimethyl-1,2,3,4,8,9-hexahydropyrido[4′,3′:3,4]pyrazolo[1,5-a]pyrazin-10(7H)-one] | 0.029 µM | >3 h | > 50 µM |
| CC(c1cnc(NC2CC2)nc1)N1C[C@@H](C)n2nc3c(c2C1=O)CN(C(=O)c1ccc(Cl)c(Cl)c1)[C@H](C)C3 (single isomer, unassigned) [Compound 37B, (3R,7R)-9-((S*)-1-(2-(cyclopropylamino)pyrimidin-5-yl)ethyl)-2-(3,4-dichlorobenzoyl)-3,7-dimethyl-1,2,3,4,8,9-hexahydropyrido[4′,3′:3,4]pyrazolo[1,5-a]pyrazin-10(7H)-one] | 0.041 µM | 0.892 h | > 50 µM |
| CC(c1cnc(N2CCOC[C@@H]2C)nc1)N1C[C@@H](C)n2nc3c(c2C1=O)CN(C(=O)c1ccc(Cl)c(C(F)(F)F)c1)[C@H](C)C3 (single isomer, unassigned) [Compound 38B, (3R,7R)-2-(4-chloro-3-(trifluoromethyl)benzoyl)-3,7-dimethyl-9-((S*)-1-(2-((S)-3-methylmorpholino)pyrimidin-5-yl)ethyl)-1,2,3,4,8,9-hexahydropyrido[4′,3′:3,4]pyrazolo[1,5-a]pyrazin-10(7H)-one] | 0.012 µM | 0.642 h | 28.4 µM |
| CC(c1ncccn1)N1C[C@@H](C)n2nc3c(c2C1=O)CN(C(=O)c1ccc(Cl)c(Cl)c1)[C@H](C)C3 (single isomer, unassigned) [Compound 39B, (3R,7R)-2-(3,4-dichlorobenzoyl)-3,7-dimethyl-9-((S*)-1-(pyrimidin-2-yl)ethyl)-1,2,3,4,8,9-hexahydropyrido[4′,3′:3,4]pyrazolo[1,5-a]pyrazin-10(7H)-one] | 0.035 µM | >3 h | > 25 µM |
| CC(c1ncc(C(F)(F)F)cn1)N1C[C@@H](C)n2nc3c(c2C1=O)CN(C(=O)c1ccc(Cl)c(Cl)c1)[C@H](C)C3 (single isomer, unassigned) [Compound 40B, (3R,7R)-2-(3,4-dichlorobenzoyl)-3,7-dimethyl-9-((S*)-1-(5-(trifluoromethyl)pyrimidin-2-yl)ethyl)-1,2,3,4,8,9-hexahydropyrido[4′,3′:3,4]pyrazolo[1,5-a]pyrazin-10(7H)-one] | 0.26 µM | >3 h | 22.9 µM |
| CC(c1cnc(C(C)(C)O)cn1)N1C[C@@H](C)n2nc3c(c2C1=O)CN(C(=O)c1ccc(Cl)c(C(F)(F)F)c1)[C@H](C)C3 (single isomer, unassigned) [Compound 41B, (3R,7R)-2-(4-chloro-3-(trifluoromethyl)benzoyl)-9-((S*)-1-(5-(2-hydroxypropan-2-yl)pyrazin-2-yl)ethyl)-3,7-dimethyl-1,2,3,4,8,9-hexahydropyrido[4′,3′:3,4]pyrazolo[1,5-a]pyrazin-10(7H)-one] | 0.014 µM | 1.65 h | > 50 µM |
| CC(c1ccn(CC(F)(F)F)n1)N1C[C@@H](C)n2nc3c(c2C1=O)CN(C(=O)c1ccc(Cl)c(C#N)c1)[C@H](C)C3 (single isomer, unassigned) [Compound 42A, 2-chloro-5-((3R,7R)-3,7-Dimethyl-10-oxo-9-((R*)-1-(1-(2,2,2-trifluoroethyl)-1H-pyrazol-3-yl)ethyl)-1,2,3,4,7,8,9,10-octahydropyrido[4′,3′:3,4]pyrazolo[1,5-a]pyrazine-2-carbonyl)benzonitrile] | 0.12 µM | >3 h | > 50 µM |
| Cc1nnc(C(C)N2C[C@@H](C)n3nc4c(c3C2=O)CN(C(=O)c2ccc(Cl)c(Cl)c2)[C@H](C)C4)o1 (single isomer, unassigned) [Compound 43B, (3R,7R)-2-(3,4-dichlorobenzoyl)-3,7-dimethyl-9-((S*)-1-(5-methyl-1,3,4-oxadiazol-2-yl)ethyl)-1,2,3,4,8,9-hexahydropyrido[4′,3′:3,4]pyrazolo[1,5-a]pyrazin-10(7H)-one] | 0.065 µM | >3 h | > 50 µM |
| CC(c1nnc(C2CC2)o1)N1C[C@@H](C)n2nc3c(c2C1=O)CN(C(=O)c1ccc(Cl)c(Cl)c1)[C@H](C)C3 (single isomer, unassigned) [Compound 44B, (3R,7R)-9-((S*)-1-(5-cyclopropyl-1,3,4-oxadiazol-2-yl)ethyl)-2-(3,4-dichlorobenzoyl)-3,7-dimethyl-1,2,3,4,8,9-hexahydropyrido[4′,3′:3,4]pyrazolo[1,5-a]pyrazin-10(7H)-one] | 0.065 µM | 2.22 h | > 50 µM |
| CC(c1cc(F)c(=O)n(C2CC2)c1)N1C[C@@H](C)n2nc3c(c2C1=O)CN(C(=O)c1ccc(Cl)c(Cl)c1)[C@H](C)C3 (single isomer, unassigned) [Compound 46B, (3R,7R)-9-((S*)-1-(1-cyclopropyl-5-fluoro-6-oxo-1,6-dihydropyridin-3-yl)ethyl)-2-(3,4-dichlorobenzoyl)-3,7-dimethyl-1,2,3,4,8,9-hexahydropyrido[4′,3′:3,4]pyrazolo[1,5-a]pyrazin-10(7H)-one] | 0.031 µM | >3 h | > 50 µM |
| CC(c1ccn(C(C)C)c(=O)c1)N1C[C@@H](C)n2nc3c(c2C1=O)CN(C(=O)c1ccc(Cl)c(C(F)(F)F)c1)[C@H](C)C3 (single isomer, unassigned) [Compound 47B, (3R,7R)-2-(4-chloro-3-(trifluoromethyl)benzoyl)-9-((S*)-1-(1-isopropyl-2-oxo-1,2-dihydropyridin-4-yl)ethyl)-3,7-dimethyl-1,2,3,4,8,9-hexahydropyrido[4′,3′:3,4]pyrazolo[1,5-a]pyrazin-10(7H)-one] | 0.016 µM | 2.4 h | > 50 µM |
| CC(C)Oc1cc(C(C)N2C[C@@H](C)n3nc4c(c3C2=O)CN(C(=O)c2ccc(Cl)c(C(F)(F)F)c2)[C@H](C)C4)ccn1 (single isomer, unassigned) [Compound 48B, (3R,7R)-2-(4-chloro-3-(trifluoromethyl)benzoyl)-9-((S*)-1-(2-isopropoxypyridin-4-yl)ethyl)-3,7-dimethyl-1,2,3,4,8,9-hexahydropyrido[4′,3′:3,4]pyrazolo[1,5-a]pyrazin-10(7H)-one] | 0.028 µM | 1.66 h | 11.5 µM |
| CC(c1ccn(C(F)F)c(=O)c1)N1C[C@@H](C)n2nc3c(c2C1=O)CN(C(=O)c1ccc(Cl)c(C(F)(F)F)c1)[C@H](C)C3 (single isomer, unassigned) [Compound 49B, (3R,7R)-2-(4-chloro-3-(trifluoromethyl)benzoyl)-9-((S*)-1-(1-(difluoromethyl)-2-oxo-1,2-dihydropyridin-4-yl)ethyl)-3,7-dimethyl-1,2,3,4,8,9-hexahydropyrido [4′,3′:3,4]pyrazolo[1,5-a]pyrazin-10(7H)-one] | 0.013 µM | >3 h | > 50 µM |
